The values below come from patent US20150306107A1, “SAA Derivative Compound Restores eNOS And Inhibits Oxidative Stress-Induced A Diseases In Hypoxia” (JANSFAT BIOTECHNOLOGY CO., LTD., priority 2014, published 2015).

In assay [1] the test system is VEGF. Nature of the assay: Western blotting of VEGF expression in rat carvenosus strip, acute hypoxia. The assay is classed as cell-based. Set-up: unit not given here. On the technique in general: A western blot detects proteins with antibodies after separation by electrophoresis.
In assay [2] the test system is ROCK II. Nature of the assay: Cigarette smoking-induced Rho/ROCK activation of rat pulmonary artery ring. The assay is classed as in vivo. The settings on record: Nebulization (2.5 mM), Non-Smoking control 100, Smoking 540 ± 28.
The subject of assay [3] is ROCK II. The assay is described as above. In kind it is in vivo. The following applies: Intraperitoneal (100 mg/kg) 1 h prior to smoke exposure, Non-Smoking control 100, Smoking 530 ± 34. The protocol: Intraperitoneal SAA complex (100 mg/kg in 200 μl of the solution) or 200 μl of saline (control) were given to animals through intraperitoneal injection 1 h prior to smoke exposure.
(§1) Whole right lung tissues of hypoxia-treated and untreated rats were isolated and cut into small strips and placed into an extraction buffer (Tris 10 mM, pH 7.0, NaCl 140 mM, PMSF 2 mM, DTT 5 mM, NP-40 0.5%, pepstatin A 0.05 mM and leupeptin 0.2 mM) for protein extraction, and then centrifuged at 12,500 g for 30 min. To measure the expression levels of the proteins, the total proteins were extracted and Western blotting analysis was performed as described previously (Bivalacqua T J, et al., 2013, TJ PLoSONE 8: e68028. doi:10.1371/journal. pone.0068028). Briefly, the protein extract was boiled to a ratio of 4:1 with a sample buffer (Tris 100 mM, pH 6.8, glycerol 20%, SDS 4% and bromophenol blue 0.2%). Electrophoresis was performed using 10% SDS-polyacrylamide gel (2 hr, 100 V, 40 mA, […] protein per lane). Separated proteins were transferred to PVDF membranes treated with 5% fat-free milk powder to block the nonspecific IgGs (90 min, 100 V) and incubated for one hour with a specific protein antibody. The blot was then incubated with anti-mouse or anti-goat IgG linked to alkaline phosphatase (1:1000) for 1 hr. Immunoreactive bands were visualized using horseradish peroxidase-conjugated secondary antibodies and subsequent electrochemiluminescence (ECL) detection (GE Healthcare Bio-Sciences Corp., Piscataway, N.J., U.S.A.). Mouse or rabbit monoclonal antibody of eNOS (Upstate, N.Y., U.S.A.), sGCα (Sigma-Adrich, CA, U.S.A., sGCβ (Santa Cruz, Calif., U.S.A.), PDE-5A (BD Tansduction, San Jose, Calif., U.S.A.), PKG (Calbiochem, San Diego, Calif., U.S.A.) ROCKII (Upstate, N.Y., U.S.A.), RhoA (Santa Cruze, Calif., U.S.A.) and the loading control protein β-actin (Sigma-Adrich, MO, U.S.A.) were used in our Western blot analysis.

The test system of assay [4] is VEGF. Nature of the assay: Western blotting of VEGF expression in isolated rat pulmonary artery ring, short-term (acute) hypoxia. In kind it is cell-based. The protocol:
(§2) In our in vitro short-term experiment, isolated rat pulmonary artery was grown under normoxia (20% O2) or hypoxia (1% O2) at 37° C. for 24 hrs as was previously done (Wu BN, et al. Int J Immunopathol Pharmacol 24:925, 2011). The heart weight and body weight ratio (HW/BW) of the rats treated with one of SPAAX-1, SPAAX-1 RX complex, Sildenafil or Sildenafil RX complex each measured on the 21st hypoxic day. All animal care and the experimental protocols of this study were approved by the Animal Care and Use Committee of the Kaohsiung Medical University. Male Wistar rats (200-250 g), provided by the National Laboratory Animal Breeding and Research Center (Taipei, Taiwan), were housed under constant temperature and controlled illumination. Food and water were available ad libitum.
as §1
(§3) The Western blotting analysis measurements were performed as per lung tissue.

For assay [5], the system named is ROCK II. Put plainly: Western blotting of ROCK II expression in isolated rat pulmonary artery ring, short-term (acute) hypoxia or normoxia. The assay is classed as cell-based. The following applies: acute hypoxia, Normoxia 100, Hypoxia 560 ± 21. The protocol:
as §2, §1, §3

Assay [6] deals with eNOS. Nature of the assay: Western blotting of eNOS expression in isolated rat pulmonary artery ring, short-term (acute) hypoxia or normoxia. The assay is classed as cell-based. The following applies: acute hypoxia, Normoxia 100, Hypoxia 65.3 ± 7.8. As to the method: as §2, §1, §3
The test system of assay [7] is ROCK II. Put plainly: Streptozotocin (STZ) induced RhoA/ROCKII activation of rat carvenosa tissue. In kind it is in vivo. The settings on record: STZ model; 2.5 mg/kg; Control 100, STZ 142 ± 28. As to the method: (§4) Electrophoresis was performed using 10% SDS-polyacrylamide gel (2 hr, 100 V, 40 mA, […] protein per lane). Separated proteins were transferred to PVDF membranes treated with 5% fat-free milk powder to block the nonspecific IgGs (90 min, 100 V) and incubated for one hour with a specific protein antibody. The blot was then incubated with anti-mouse or anti-goat IgG linked to alkaline phosphatase (1:1000) for 1 hr. Immunoreactive bands were visualized using horseradish peroxidase-conjugated secondary antibodies and subsequent electrochemiluminescence (ECL) detection (GE Healthcare Bio-Sciences Corp., Piscataway, N.J., U.S.A.). Mouse or rabbit monoclonal antibody of eNOS (Upstate, N.Y., U.S.A.), sGCα (Sigma-Adrich, CA, U.S.A., sGCβ (Santa Cruz, Calif., U.S.A.), PDE-5A (BD Tansduction, San Jose, Calif., U.S.A.), PKG (Calbiochem, San Diego, Calif., U.S.A.) ROCKII (Upstate, N.Y., U.S.A.), RhoA (Santa Cruze, Calif., U.S.A.) and the loading control protein β-actin (Sigma-Adrich, MO, U.S.A.) were used in our Western blot analysis.

Assay [8] concerns eNOS. Nature of the assay: Streptozotocin (STZ) induced eNOS down-regulation of rat carvenosa tissue. In kind it is in vivo. The settings on record: STZ model; 2.5 mg/kg; Control 100, STZ 60 ± 7.3. As to the method: as §4
Assay [9] deals with eNOS. Put plainly: Western blotting of eNOS expression in rat carvenosus strip, acute hypoxia. The assay is classed as cell-based. Set-up: unit not given here.
The mark [10] stands for this setting: Normoxia 100, Hypoxia 62.4 ± 5.5.

The structures appear in SMILES notation. Counter-ions that a name gives are not always drawn.

As to `Cl.Cn1c(=O)c2c(ncn2CCN2CCN(c3ccccc3Cl)CC2)n(C)c1=O` [Reagent 3, 7-[2-[4-(2-chlorophenyl)piperazinyl]ethyl]-1,3-dimethylxanthine HCl Complex], the “VEGF expression, Carvenosus” value in assay [1] (Normoxia 100, Hypoxia 170 ± 15) was 110 ± 9.4. Also, the “ROCK II of pulmonary artery ring” value in assay [2] came to 76 ± 6.2; in assay [3] it was 76 ± 5.3. The “VEGF expression, Pulmonary Artery Ring” value in assay [4] (Normoxia 100, Hypoxia 175 ± 14) was determined as 108 ± 8.2. The “ROCK II expression, Pulmonary Artery Ring” value (“ROCK II expression” for short) in assay [5] is given as 255 ± 4.6. Moreover, the “eNOS expression, Pulmonary Artery Ring” value in assay [6] was found to be 136 ± 4.6. Moreover, the “ROCK II, Carvanosus tissue” value in [7] was 40 ± 5.2%. Besides, the “eNOS, Carvanosus tissue” value in assay [8] is 140 ± 5.3%. In addition, the “eNOS expression, Carvenosus” value in assay [9] (setting [10]) came out at 102 ± 5.8.

Consider `CCCc1nn(C)c2c(=O)[nH]c(-c3cc(S(=O)(=O)N4CCN(C)CC4)ccc3OCC)nc12` [Reagent 1004, Sildenafil citrate complex, reference compound], for which the “VEGF expression, Carvenosus” value in assay [1] (Normoxia 100, Hypoxia 170 ± 15) is listed as 105 ± 9.2. The “ROCK II of pulmonary artery ring” value in assay [2] was 64 ± 3.8; in [3], 76 ± 6.8. In addition, in assay [4] (Normoxia 100, Hypoxia 175 ± 14), the “VEGF expression, Pulmonary Artery Ring” value is reported as 110 ± 3.8. In addition, the “ROCK II expression” value in assay [5] worked out at 205 ± 8.5. In assay [6], the “eNOS expression, Pulmonary Artery Ring” value was 132 ± 6.6. Moreover, in assay [7], the “ROCK II, Carvanosus tissue” value is recorded as 44 ± 3.8%. In addition, the “eNOS, Carvanosus tissue” value in assay [8] came to 74 ± 6.8%. Further, the “eNOS expression, Carvenosus” value in assay [9] (setting [10]) is 125 ± 6.9.

Consider `CCCc1nn(C)c2c(=O)[nH]c(-c3cc(S(=O)(=O)N4CCN(C)CC4)ccc3OCC)nc12.O=C1OC(C(O)CO)C(O)=C1O` [Reagent 1007, Sildenafil L-ascorbate complex], for which the “VEGF expression, Carvenosus” value in assay [1] (Normoxia 100, Hypoxia 170 ± 15, listed as 1007) turned out to be 94 ± 6.8. Moreover, the figures for the “ROCK II of pulmonary artery ring” value in assay [2] and in [3] were 66 ± 5.1 and 84 ± 8.2, respectively. Besides, in [4] (Normoxia 100, Hypoxia 175 ± 14, listed as 1007), the “VEGF expression, Pulmonary Artery Ring” value amounted to 92 ± 6.4. Moreover, the “ROCK II expression” value in assay [5] (listed as 1007) was 190 ± 7.7. Also, the “eNOS expression, Pulmonary Artery Ring” value in assay [6] (listed as 1007) came out at 160 ± 5.8. Also, the “ROCK II, Carvanosus tissue” value in assay [7] turned out to be 38 ± 5.1%. In addition, the “eNOS, Carvanosus tissue” value in assay [8] came to 84 ± 8.2%. Further, the “eNOS expression, Carvenosus” value in [9] (Normoxia 100, Hypoxia 62.4 ± 5.5, listed as 1007) was determined as 142 ± 6.9.
